Test results taken from publication PMC8466854, “Molecular Determinant of DIDS Analogs Targeting RAD51 Activity” (Molecules, 2021).
pIC50: −log10 of the molar value. Read-outs that look alike come from different tables or passages of the source.

What was measured:
RAD51 [1] = molecular target: T1, RAD51 (Homo sapiens, UniProt Q06609); assay: D-loop assay (RAD51-mediated D-loop formation); format: biochemical; conditions: for Effect on D-loop structure formation: increasing concentration until 100 µM
T1 construct: His; made in house; host or cells: Escherichia coli BL21-DE3
T1 sequence (Q06609 1-339): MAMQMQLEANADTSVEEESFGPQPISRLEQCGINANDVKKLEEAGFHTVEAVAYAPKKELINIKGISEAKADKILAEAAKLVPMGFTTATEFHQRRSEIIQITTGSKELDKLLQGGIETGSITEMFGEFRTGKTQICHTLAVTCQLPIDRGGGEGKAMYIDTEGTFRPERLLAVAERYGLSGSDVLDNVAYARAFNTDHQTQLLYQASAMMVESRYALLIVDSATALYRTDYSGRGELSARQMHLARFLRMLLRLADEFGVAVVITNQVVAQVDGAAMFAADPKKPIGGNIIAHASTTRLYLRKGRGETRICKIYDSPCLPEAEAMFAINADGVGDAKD

RAD51 [2] = molecular target: T1, RAD51; assay: DNA binding assay by bio-layer interferometry (BLItz), RAD51 pre-incubated with drug: ssDNA-RAD51 association / nucleofilament formation; conditions: for inhibition at 20 µM: read-out: Inhibition of the association of RAD51 with ssDNA (reduction of nucleofilament formation); for Effect on ssDNA-RAD51 association: RAD51 2 µM pre-incubated with drug, 40 µM of each molecule (Figure 3A)
Description: We have evaluated the steps preceding D-loop formation, namely the formation of the nucleofilament of RAD51. We investigated the effect of DIDS and its derivatives on ssDNA binding and the nucleofilament formation functions of RAD51 by bio-layer interferometry. Two approaches were undertaken: (i) to determine the impact of drugs on RAD51-ssDNA binding and (ii) to evaluate the ability of drugs to dissociate RAD51 nucleofilament. Concerning the first approach, we pre-incubated RAD51 with the drug of interest for 5 min before measuring ssDNA-RAD51 binding efficiency. […] At a concentration of 20 μM, DAZDS inhibits the association of RAD51 with ssDNA by more than 80% (Figure 3C,E), while at the same concentration the SITS slightly reduces the formation of the nucleofilament by about 10–20% (Figure 3D,E).
(§1) Figure 3 DIDS derivatives modulate the RAD51 nucleofilament formation. The association and dissociation between RAD51 and ssDNA were evaluated by Blitz interferometry. RAD51 (2 µM) was pre-incubated in phosphate buffer in absence or presence of each molecule at different concentrations before the measurement. The association phase followed until 50 s while the dissociation phase was monitored until 80 or 90 s, as indicated in graphs. (A) Effect of DIDS family on the ssDNA-RAD51 association was evaluated at 40 µM concentration of each molecule including DIDS, DADS, DAZDS, DNDS, and SITS. (B) DIDS, (C) DAZDS, and (D) SITS were incubated with RAD51 at increasing concentrations of 2, 10, and 20 µM for 5 min before the measurement by BLItz approach. (E) The percent of nucleofilament formation in presence of stilbene molecule was calculated in comparison to the condition in absence of drug after 50 s. This percentage was presented in function to the increasing concentration (from 2 to 20 µM) of each small molecule. (F) RAD51 associates with ssDNA until 50 s, and then each molecule is added at 40 µM as indicated by the narrow in the graph.
(§2) PolydT DNA (1 µM) is biotinylated to allow its binding to the streptavidin-coated biosensor. Two methods of evaluation are used: the former by pre-incubating RAD51 with the drug to test and the latter by adding the drug after RAD51 is bound to DNA. In the first case, 2 µM RAD51 is incubated with the drug for […] on ice, then RAD51-ssDNA binding measurement is performed (baseline phase: 10 s; association phase: 40 s; dissociation phase: 30 s). In the second case, RAD51-ssDNA binding is analyzed, and after the association phase, the drug is added to the reaction and dissociation effect is measured (baseline phase: 10 s; association phase: 50 s; dissociation phase: 40 s). For the two cases, reaction buffer is composed of Phosphate Buffer saline (PBS) and 1 mM ATP. The tip is regenerated with 50 mM NaOH during 40 s before reuse. Measures are realized on a BLItz device from ForteBio.

RAD51 nucleofilament = molecular target: T2, RAD51 nucleofilament (Homo sapiens, UniProt Q06609); assay: DNA binding assay by bio-layer interferometry (BLItz), drug added after RAD51 is bound to ssDNA: nucleofilament dissociation; conditions: drug added at 40 µM after association of RAD51 with ssDNA
T2 construct: His; made in house; host or cells: Escherichia coli BL21-DE3
T2 sequence (Q06609 1-339): T1 sequence (Q06609 1-339)
Description: as §1
To this purpose, we incubated RAD51 with ssDNA, then we added the drug, and we measured the dissociation kinetic of RAD51 nucleofilament (Figure 3F).
as §2

RAD51 [3] = molecular target: T1, RAD51; assay: RAD51 self-association by BS3 chemical cross-linking; format: biochemical; conditions: 50 µM of drug; for Effect on oligomer/monomer migration profile (self-association of RAD51): RAD51 8.5 µM, BS3 cross-link, SDS-PAGE; for Decrease of polymerization rate (oligomer/monomer form intensity ratio): three independent experiments
Excerpt: The mechanism of action of these DIDS analogs molecules remains unclear, but they probably act on the protein–protein interaction site of RAD51. In order to assess their possible effect on the subunit–subunit RAD51 association, we investigated the oligomerization level of RAD51 in presence of these small molecules. By using BS3 cross-linker, we fixed the quaternary structure of RAD51 in absence or in presence of the five stilbene molecules. Oligomer and monomer forms were separated on SDS-PAGE and stained with Coomassie blue (Figure 4A). Oligomer forms include dimer, trimer, and high polymer while monomer form is well separated at 37 kDa.
Figure 4 Self-association of RAD51 is inhibited in the presence of DIDS, SITS, and DAZDS. (A) The polymerization of RAD51 was estimated by cross-link approach (see Material and Method section). (B) Oligomer and monomer forms ratio is presented as a histogram graph. Three independent experiments were performed and statistical analysis was performed using paired Student’s t-test. Statistical significance was assumed at ** p < 0.01, *** p < 0.001. Each error bar represents s.d. statistical analysis.
RAD51 at 8.5 µM was incubated with the indicated concentrations of chemical compounds for 5 min at room temperature in a buffer containing 20 mM sodium phosphate, 50 mM azidol, 1 mM MgCl2, and 1 mM ATP. The protein was cross-linked with 4.2 µM of BS3 (bis(sulfosuccinimidyl)suberate, Sigma) at room temperature for 30 min. Then the reaction was stopped by addition of Tris-HCl pH 8.1 at final concentration 33 mM for 15 min at room temperature. The sample was separated by SDS-PAGE at 10% and analyzed by Western blotting. Anti-RAD51 rabbit antibody was used as primary antibody (Sigma-Aldrich Cat# SAB2101936, RRID:AB_10607384), then secondary anti-rabbit antibody conjugated to alexafluor 680 (GAR 700: Molecular Probes Cat# A-21076, RRID:AB_2535736) was used for the detection. The quantification of monomer and cross-linked oligomers was performed by an Odyssey infrared imaging system scanner (LI-COR, Biosciences, Lincoln, NE, USA).

[4] = system: fibroblast and prostatic cancer cells; assay: Cytotoxicity (data not shown); format: cell-based
RAD51 (Homo sapiens) = assay: BLI; conditions: 1 mM ATP, RAD51 pre-incubated with DAZDS 20 uM, BLI (BLItz): PBS, 2 uM RAD51, biotinylated polydT 1 uM on streptavidin sensor, drug pre-incubation 10 min on ice (Methods; 5 min in Results), assay …
[5] = parameters: method as in PMID 18642799; conditions: aqueous solution ref 30; cited from earlier work
RAD51 [6] = system: RAD51; parameters: method as in PMID 19336413; conditions: absence or presence of ATP has no influence ref 20; cited from earlier work
RAD51 foci formation = system: RAD51 foci formation; parameters: method as in earlier work; conditions: leukemia cells / B cells ref 21, Muramatsu et al.; cited from earlier work
[7] = D-loop formation by RAD51, 1 to 100 µM of each molecule, three independent experiments, read-out: IC50 determination from D-loop data

pIC50 (RAD51 [1]; [7]) | inhibition at 20 µM (RAD51 [2]; 20 µM of drug, RAD51 2 µM pre-incubated, after 50 s) | Effect on ssDNA-RAD51 association (RAD51 [2]) | RAD51 nucleofilament formation (RAD51 [2]; from 10 µM of drug, RAD51 2 µM pre-incubated) | Compound | Effect on D-loop structure formation (RAD51 [1]) | Effect on nucleofilament stability (dissociation of RAD51 nucleofilament) (RAD51 nucleofilament) | Effect on oligomer/monomer migration profile (self-association of RAD51) (RAD51 [3]) | Decrease of polymerization rate (oligomer/monomer form intensity ratio) (RAD51 [3]) | Cytotoxicity ([4]; cells not given, in contrast to DIDS) | pIC50 (RAD51 [1]) | pIC50 (RAD51 [1]; read-out: IC50 determination from D-loop data, D-loop formation by RAD51, 1 to 100 µM of each molecule, three independent experiments) | inhibition at 20 µM (RAD51 [2]) | binding signal (% inhibition of association) (RAD51 (Homo sapiens)) | Cytotoxicity ([4]; fibroblast and prostatic cancer cells, data not shown) | Stability in aqueous solution [5] | RAD51 binding to ssDNA or dsDNA in the presence of the drug (RAD51 [6]) | RAD51 foci formation (RAD51 foci formation)
4.38 | > 80% | inhibitory effect |  | [N-]=[N+]=Nc1ccc(C=Cc2ccc(N=[N+]=[N-])cc2S(=O)(=O)O)c(S(=O)(=O)O)c1 [DAZDS, 4,4′-diazidostilbene-2,2′-disulfonic acid] | significant inhibitory effect | totally dissociated the structure | decrease of oligomer forms in favor of RAD51 monomer | about 40% | weak cytotoxicity |  |  |  |  |  |  |  | 
 |  |  |  | O=[N+]([O-])c1ccc(C=Cc2ccc([N+](=O)[O-])cc2S(=O)(=O)O)c(S(=O)(=O)O)c1 [DNDS, 4,4′-dinitrostilbene-2,2′-disulfonic acid] | no effect | not able to dissociate the nucleofilament | no effect on the self-association of RAD51 | no effect |  | < 4.00 | ≥ 4.00 |  |  |  |  |  | 
 |  |  |  | polydT |  |  |  |  |  |  |  |  | > 80 |  |  |  | 
6.05 |  | inhibitory effect | totally inhibited | O=S(=O)(O)c1cc(N=C=S)ccc1C=Cc1ccc(N=C=S)cc1S(=O)(=O)O [DIDS, 4,4′-diisothiocyanatostilbene-2,2′-disulfonic acid] | inhibits D-loop intermediate structure in a dose-dependent manner | totally dissociated the structure | decrease of oligomer forms in favor of RAD51 monomer | about 40% |  |  |  |  |  | relatively cytotoxic | unstable in aqueous solution | unable to bind ssDNA or dsDNA | inhibit RAD51 foci formation

Compound | pIC50 (RAD51 [1]; [7]) | inhibition at 20 µM (RAD51 [2]; 20 µM of drug, RAD51 2 µM pre-incubated, after 50 s) | Effect on ssDNA-RAD51 association (RAD51 [2]) | RAD51 nucleofilament formation (RAD51 [2]; from 10 µM of drug, RAD51 2 µM pre-incubated) | Effect on D-loop structure formation (RAD51 [1]) | Effect on nucleofilament stability (dissociation of RAD51 nucleofilament) (RAD51 nucleofilament) | Effect on oligomer/monomer migration profile (self-association of RAD51) (RAD51 [3]) | Decrease of polymerization rate (oligomer/monomer form intensity ratio) (RAD51 [3]) | Cytotoxicity ([4]; cells not given, in contrast to DIDS) | pIC50 (RAD51 [1]) | pIC50 (RAD51 [1]; read-out: IC50 determination from D-loop data, D-loop formation by RAD51, 1 to 100 µM of each molecule, three independent experiments) | inhibition at 20 µM (RAD51 [2]) | binding signal (% inhibition of association) (RAD51 (Homo sapiens)) | Cytotoxicity ([4]; fibroblast and prostatic cancer cells, data not shown) | Stability in aqueous solution [5] | RAD51 binding to ssDNA or dsDNA in the presence of the drug (RAD51 [6]) | RAD51 foci formation (RAD51 foci formation)
CC(=O)Nc1ccc(C=Cc2ccc(N=C=S)cc2S(=O)(=O)O)c(S(=O)(=O)O)c1 [SITS, 4-acetamido-4′-isothiocyanatostilbene-2,2′-disulfonic acid] |  |  | inhibitory effect |  | significant inhibitory effect |  | decrease of oligomer forms in favor of RAD51 monomer | about 40% |  | 4.54 |  | 10 to 20% |  |  |  |  | 
Nc1ccc(C=Cc2ccc(N)cc2S(=O)(=O)O)c(S(=O)(=O)O)c1 [DADS, 4,4′-diaminostilbene-2,2′-disulfonic acid] | < 4.00 |  |  |  | no effect | not able to dissociate the nucleofilament | no effect on the self-association of RAD51 | no effect |  |  |  |  |  |  |  |  | 
